Measured values taken from PMC7934871 (JCI Insight, 2021).

Key:
pY694-STAT5 = experiment: Western blotting of p-STAT5 in HCT116 cells; assay type: cell-based, human; conditions: HCT116, 1 µM, 48 hours
Description: (§1) Whole cell lysates or tissue homogenates were prepared by using RIPA lysis buffer (50 mM Tris at pH 7.4, 150 mM NaCl, 1 mM EDTA, 0.5% NP-40, 1 mM NaF, 15% glycerol, and 20 mM β-glycerophosphate). A protease inhibitor cocktail (Mini Protease Inhibitor Cocktail; Roche) and a tyrosine phosphatase inhibitor, sodium orthovanadate (Na3VO4, 1 mM), were added freshly to the lysis buffer. Protein amounts were determined by BCA using a Thermo Fisher Scientific kit. Normalized protein amounts were subjected to an SDS-PAGE and transferred onto a nitrocellulose membrane for Western blotting. Proteins were visualized with a chemiluminescent detection kit (Pierce, Thermo Fisher Scientific). The protein levels for STAT1 (sc-346, E-23), STAT3 (sc-482, C-20), STAT5 (sc-74442, A-9), Crm1 (exportin 1) (sc-5595, H-300), CAS (exportin 2) (sc-271537, H-2), exportin 5 (sc-66885, H-300), and exportin 7 (sc-98639, H-82) were determined using antibodies from Santa Cruz Biotechnology Inc. Anti–exportin 3 (exportin T, 630622, LOS1 05-1525), anti–exportin 4 (3499-1), and anti–exportin 6 (11408-1-AP) were from MilliporeSigma, Epitomics, and Proteintech, respectively. […]
(§2) Supplemental Figure 4 (related to Figure 1). […] Phosphorylation of STAT3 at Y705 and STAT5 at Y694 was detected by Western blotting after 48 hours treatment of PS-acet.-STAT3 peptide (1 µM) or napabucasin (1 µM) in HCT116 cells. […]

pY705-STAT3 = experiment: Western blotting of p-STAT3 in HCT116 cells; assay type: cell-based, human; conditions: HCT116, 1 µM, 48 hours
From the text: Figure 3 PS-acet.-STAT3 peptide inhibits STAT3 activity and downregulates the expression of STAT3 targets. (A) Downregulation of STAT3 activity and its downstream target proteins shown in human HCT116 colorectal cancer cells by Western blotting (data represent 1 of the 3 experiments, n = 3). PO-acet.-STAT3 and PS-STAT3-K685R peptides were used in parallel as controls. (B) STAT3 inhibition regulated the expression of proliferation and apoptotic genes, assessed by real-time quantitative PCR. Data present mean ± SD, n = 3 independent experiments, 1-way ANOVA; ***P < 0.005; **P < 0.01. […] For p53 promoter assay, data represent 3 replicates in 3 independent experiments (n = 9). For cell proliferation assay, data represent 3 independent experiments. SD is shown (n = 3). One-way ANOVA; ***P < 0.005; **P < 0.01.
as §1, with “Proteins were visualized with a chemiluminescent detection kit (Pierce, Thermo Fisher Scientific).” left out
as §2

HCT116 xenograft tumors = experiment: HCT116 xenograft in NSG mice, peritumoral treatment; assay type: in vivo, mouse; conditions: HCT116 s.c. in NSG mice, 1 mg/kg peritumoral every day, n = 4
Description: Mouse care and experimental procedures were performed under pathogen-free conditions in accordance with established institutional guidance and approved IACUC protocols from Research Animal Care Committee of the City of Hope. For s.c. tumor challenge, 5 × 10^6 HCT116 cells were injected into NSG mice from The Jackson Laboratory or animal resource core facility at the City of Hope. After tumors reached an average size of 80~100 mm^3, mice were locally or intravenously treated with 1 mg/kg of PO- or PS-peptides (Anaspec) every day or every other day. Control animals were treated with the equal volume of HBSS (Invitrogen, Thermo Fisher Scientific). Tumor growth was measured by a digital caliper every other day. […] Lungs were then analyzed for immune responses by immunostaining followed by confocal imaging. […] Tumor growth was measured by a digital caliper every other day. […]
(B) PS-acet.-STAT3 peptide downregulates STAT3 phosphorylation, assessed by Western blotting using tumor homogenates prepared from tumors shown in A.
(C) mRNA levels for CASP9, BIRC5 and BCL2L1 in the same tumor tissues described above were assessed by qRT-PCR. […]
(D) Treatments with PS-acet.-STAT3 peptide induced cell death, indicated by H&E staining (upper panel). […] Right panels represent quantification of Ki-67 protein levels and mean of vessel diameter (data include 5 fields of view per group). […]

[1] = Systemic toxicity in mice; assay type: in vivo; conditions: 1 mg/kg i.v. every other day for 3 weeks, n = 3
Description: To evaluate the potential toxicity associated with systemic treatments of PS-peptide, PS-acet.-STAT3 peptide, PS-oligo, naive peptide, and PO- or PS-acet.-STAT3 peptide were given to the mice at 1 mg/kg through i.v. every other day for 3 weeks.
Supplemental Figure 10 (related to Figure 3). The systemic toxicity of PS-acet.-peptide.
The bodyweight (A), blood count (B) and organ morphology (H&E staining; spleen, kidney and liver) (C) of the mice (n=3) treated with HBSS (1), PS-oligo (2), naïve peptide (3), PO-peptide (4) or PS-peptide (5) every other day at 1 mg/kg (per treatment) for 3 weeks.
Individual value of each mouse is shown as a dot on the graph. The red lines on each graph in (B) indicate the normal ranges. Blood count was done by a veterinary hematology analyzer. The images shown in (C) are the represented H&E section from three mice (n=3). Enlarged view are shown below as indicated. Scale bar, 50 µm.
Aftabizadeh and Li et al., Figure S10

B16 melanoma = B16 melanoma lung metastasis in C57BL/6 mice; assay type: in vivo, mouse; conditions: B16 i.v. in C57BL/6 mice, 1 mg/kg i.v. every other day, gp100 staining, n = 5
From the text: Figure 7 PS-acet.-STAT3 peptide treatment efficiently reduces mouse melanoma lung metastasis. (A) Systemic PS-acet.-STAT3 peptide treatment reduces B16 lung nodules in syngeneic mouse model compared with control treatments. The B16 lung nodules in mice treated with the indicated STAT3 peptides and vehicle (n = 5) were visualized by IF staining of gp100 and quantified by confocal microscopy and Zen software. The levels of phosphorylation of STAT3 (p-STAT3), CD69, and Foxp3 in the tumor or tumor-infiltrating CD8^+ T or CD4^+ T cells were detected by IF staining followed by confocal microscopy in B16 metastatic lung nodules upon treatments with vehicle, PO- or PS-acet.-STAT3, PS-STAT3-K685R, or PS-unacet.-STAT3 peptides as indicated. Images are representative of 5 lungs per experimental group. Scale bars: 20 μm (CD69, CD8, CD4, p-STAT3, and Foxp3) and 100 μm (gp100). White arrows indicate the immune cells. Insets: original magnification, ×40. (B) The graphs show the quantification of gp100 and p-STAT3 expression levels (MFI) or the cell population (%) of CD69^+ in CD8^+ or p-STAT3^+ in CD4^+ or Foxp3^+ in CD4^+ (data represent 5 lungs per group, n = 5). SD is shown. One-way ANOVA; ****P < 0.001.
Mouse care and experimental procedures were performed under pathogen-free conditions in accordance with established institutional guidance and approved IACUC protocols from Research Animal Care Committee of the City of Hope. For s.c. tumor challenge, 5 × 10^6 HCT116 cells were injected into NSG mice from The Jackson Laboratory or animal resource core facility at the City of Hope. After tumors reached an average size of 80~100 mm^3, mice were locally or intravenously treated with 1 mg/kg of PO- or PS-peptides (Anaspec) every day or every other day. Control animals were treated with the equal volume of HBSS (Invitrogen, Thermo Fisher Scientific). Tumor growth was measured by a digital caliper every other day. To study the effects of the modified peptides at protein and gene levels, mice were euthanized 4–6 weeks after tumor injection. B16 melanoma lung metastasis was performed by injecting 0.5 × 10^6 B16 cells into bloodstream of C57BL/6 mice (The Jackson Laboratory). One day after tumor challenge, mice were treated intravenously (retro-orbitally) with 1 mg/kg of PO- or PS-acet.-STAT3, PS-unacet.-STAT3, or PS-STAT3-K685R peptides every other day until the endpoint as indicated. Control mice were treated with HBSS. Lungs were excised from the mice, and B16 nodules were visualized by gp100 staining. Lungs were then analyzed for immune responses by immunostaining followed by confocal imaging. For mouse PDAC model, 5 × 10^6 KPC mouse cells were mixed with Matrigel and subcutaneously injected into C57BL/6 mice (The Jackson Laboratory). After tumors reached an average size of 80~100 mm^3, mice were intravenously treated with 1 mg/kg of PO- or PS-Gp130, PS-oligo, PS-SC-MYC, PS-MYC. or combined PS-Gp130/PS-MYC (0.5 mg/kg, 0.5 mg/kg) (Anaspec) every other day for 18 days. Control animals were treated with the equal volume of HBSS (Invitrogen, Thermo Fisher Scientific). Tumor growth was measured by a digital caliper every other day. To study the effects of the modified peptides at protein and gene levels, mice were euthanized at the endpoint as indicated.

| Molecule | p-STAT5 (Y694) level (pY694-STAT5) | phosphorylated STAT3 (p-STAT3, Y705) level (pY705-STAT3) | tumor growth (HCT116 xenograft tumors) | behavior, body weight, blood counts [1] | morphology and cell death in liver, spleen, kidney tissues (H&E) [1] | metastatic lung nodules (B16 melanoma) |
| --- | --- | --- | --- | --- | --- | --- |
| CC(=O)c1cc2c(o1)C(=O)c1ccccc1C2=O [napabucasin, reference compound] | inhibited | inhibited | – | – | – | – |
| PDIPKEEAFGK685(Ac)YCRPESQEHPC-linker-TCCATGAGCTTCCTGATGCT [PO-acet.-STAT3 peptide] | – | – | not | No behavior changes, body weight loss, or abnormal blood counts | no significant morphology change or cell death | few antitumor effects |
